Results reported in patent US20050074810A1, “Method for non-invasilvely determining the relative levels of two biological substances” (priority 2001, published 2005).

Test: In vitro reverse iontophoretic extraction of valproate and glutamate (Example 1)
Type: in vitro ADME, pig
Details: glutamate 60 μM
Protocol: The cathodal chamber was sampled only at the end of 5 hours of current passage.
Subsequent to this first period of 5 hours at 0.4 mA, a reduced current of 0.1 mA was passed for the next 19 hours, at the end of which both anodal and cathodal chambers were sampled.
The total experiment therefore lasted 24 hours.

[1] = subdermal valproate 21 μM, 4-5 h, 0.4 mA
[2] = subdermal valproate 21 μM, 5-24 h, 0.1 mA
[3] = subdermal valproate 35 μM, 4-5 h, 0.4 mA
[4] = subdermal valproate 35 μM, 5-24 h, 0.1 mA
[5] = subdermal valproate 70 μM, 4-5 h, 0.4 mA
[6] = subdermal valproate 70 μM, 5-24 h, 0.1 mA
[7] = subdermal valproate 104.5 μM, 4-5 h, 0.4 mA
[8] = subdermal valproate 104.5 μM, 5-24 h, 0.1 mA

N[C@@H](CCC(=O)O)C(=O)O [Glutamate, glutamate]
Transport number (×10^6) (subdermal valproate 21 μM, 0-1 h): 7.89 ± 4.51 ×10^6
Extraction flux (subdermal valproate 21 μM, 0-1 h, 0.4 mA): 118 pmoles · h^−1 · cm^−2
Transport number (×10^6) (subdermal valproate 21 μM, 1-2 h): 20.6 ± 7.92 ×10^6
Extraction flux (subdermal valproate 21 μM, 1-2 h, 0.4 mA): 308 pmoles · h^−1 · cm^−2
Transport number (×10^6) (subdermal valproate 21 μM, 2-3 h): 29.5 ± 7.38 ×10^6
Extraction flux (subdermal valproate 21 μM, 2-3 h, 0.4 mA): 440 pmoles · h^−1 · cm^−2
Transport number (×10^6) (subdermal valproate 21 μM, 3-4 h): 32.1 ± 5.77 ×10^6
Extraction flux (subdermal valproate 21 μM, 3-4 h, 0.4 mA): 479 pmoles · h^−1 · cm^−2
Extraction flux [1]: 570 pmoles · h^−1 · cm^−2
Transport number (×10^6) [1]: 38.2 ± 5.19 ×10^6
Extraction flux [2]: 142 pmoles · h^−1 · cm^−2
Transport number (×10^6) [2]: 38.1 ± 6.24 ×10^6
Transport number (×10^6) (subdermal valproate 35 μM, 0-1 h): 10.4 ± 5.47 ×10^6
Extraction flux (subdermal valproate 35 μM, 0-1 h, 0.4 mA): 155 pmoles · h^−1 · cm^−2
Transport number (×10^6) (subdermal valproate 35 μM, 1-2 h): 24.6 ± 5.83 ×10^6
Extraction flux (subdermal valproate 35 μM, 1-2 h, 0.4 mA): 367 pmoles · h^−1 · cm^−2
Transport number (×10^6) (subdermal valproate 35 μM, 2-3 h): 32.4 ± 5.71 ×10^6
Extraction flux (subdermal valproate 35 μM, 2-3 h, 0.4 mA): 484 pmoles · h^−1 · cm^−2
Transport number (×10^6) (subdermal valproate 35 μM, 3-4 h): 38.2 ± 2.84 ×10^6
Extraction flux (subdermal valproate 35 μM, 3-4 h, 0.4 mA): 571 pmoles · h^−1 · cm^−2
Extraction flux [3]: 588 pmoles · h^−1 · cm^−2
Transport number (×10^6) [3]: 39.4 ± 3.28 ×10^6
Extraction flux [4]: 143 pmoles · h^−1 · cm^−2
Transport number (×10^6) [4]: 38.3 ± 4.24 ×10^6
Transport number (×10^6) (subdermal valproate 70 μM, 0-1 h): 5.92 ± 3.03 ×10^6
Extraction flux (subdermal valproate 70 μM, 0-1 h, 0.4 mA): 88 pmoles · h^−1 · cm^−2
Transport number (×10^6) (subdermal valproate 70 μM, 1-2 h): 17.9 ± 6.88 ×10^6
Extraction flux (subdermal valproate 70 μM, 1-2 h, 0.4 mA): 267 pmoles · h^−1 · cm^−2
Transport number (×10^6) (subdermal valproate 70 μM, 2-3 h): 26.0 ± 6.32 ×10^6
Extraction flux (subdermal valproate 70 μM, 2-3 h, 0.4 mA): 388 pmoles · h^−1 · cm^−2
Transport number (×10^6) (subdermal valproate 70 μM, 3-4 h): 33.1 ± 6.80 ×10^6
Extraction flux (subdermal valproate 70 μM, 3-4 h, 0.4 mA): 494 pmoles · h^−1 · cm^−2
Extraction flux [5]: 524 pmoles · h^−1 · cm^−2
Transport number (×10^6) [5]: 35.1 ± 5.52 ×10^6
Extraction flux [6]: 146 pmoles · h^−1 · cm^−2
Transport number (×10^6) [6]: 39.2 ± 6.45 ×10^6
Transport number (×10^6) (subdermal valproate 104.5 μM, 0-1 h): 9.92 ± 4.20 ×10^6
Extraction flux (subdermal valproate 104.5 μM, 0-1 h, 0.4 mA): 148 pmoles · h^−1 · cm^−2
Transport number (×10^6) (subdermal valproate 104.5 μM, 1-2 h): 24.2 ± 4.79 ×10^6
Extraction flux (subdermal valproate 104.5 μM, 1-2 h, 0.4 mA): 361 pmoles · h^−1 · cm^−2
Transport number (×10^6) (subdermal valproate 104.5 μM, 2-3 h): 32.8 ± 3.60 ×10^6
Extraction flux (subdermal valproate 104.5 μM, 2-3 h, 0.4 mA): 490 pmoles · h^−1 · cm^−2
Transport number (×10^6) (subdermal valproate 104.5 μM, 3-4 h): 37.9 ± 4.98 ×10^6
Extraction flux (subdermal valproate 104.5 μM, 3-4 h, 0.4 mA): 566 pmoles · h^−1 · cm^−2
Extraction flux [7]: 599 pmoles · h^−1 · cm^−2
Transport number (×10^6) [7]: 40.1 ± 5.16 ×10^6
Extraction flux [8]: 157 pmoles · h^−1 · cm^−2
Transport number (×10^6) [8]: 42.2 ± 6.22 ×10^6
